Measured values from publication PMC3090393, “New Noncovalent Inhibitors of Penicillin-Binding Proteins from Penicillin-Resistant Bacteria” (PLoS ONE, 2011).
Read-outs that look alike come from different tables or passages of the source.

Assays:
PBP2x 5204 = PBP2x 5204 (Streptococcus pneumoniae, UniProt P59676); assay: PBP2x 5204 enzymatic inhibition assay (S2d hydrolysis, DTNB); assay type: biochemical, Streptococcus pneumoniae strain 5204
Experimental: PBP2x-5204 from Streptococcus pneumonia and N-benzoyl-D-alanyl-thioglycolate S2d[21], [22] were prepared as previously described. All assays with PBP2x 5204 were carried out in 96-well microtiter plates (Brand, Wertheim, Germany). PBP2x 5204 (0.6 µM) was incubated in the presence of the potential inhibitors in 10 mM sodium phosphate buffer (pH 7.0) containing 70 mM D-alanine and 0.01 mg/mL BSA, for 4 h at 25°C. This preincubation was used to also detect slow binding inhibitors. After the preincubation, the RA of PBP2x 5204 was determined. The initial rate of hydrolysis of 1 mM S2d in the presence of 1 mM DTNB was determined by monitoring the increase in absorbance at 412 nm (DTNB: ε[Δ ε] = […]) using a microplate absorbance reader (Power Wave X, Biotek Instruments, Winooski, U.S.A.). The rate of spontaneous hydrolysis of S2d in the presence of the potential inhibitors was also determined in the absence of PBP2x 5204. All of the assays were carried out in triplicate. The determination of the RA of PBP2x 5204 in the absence of inhibitors was carried out six times on each plate. A test compound was considered as an inhibitor if the RA was <80%. In this case, to reveal false positives, the assays were also carried out under the same conditions in the presence of 0.01% Triton X-100. As described in the literature, promiscuous inhibitors (false positives) are slow binding, noncompetitive inhibitors. To avoid detailed kinetic investigations, it is possible to identify such compounds by carrying out the assays in the presence of Triton X-100[14], [19]. Promiscuous inhibitors show no inhibition in the presence of Triton X-100. The IC50 values in the presence of Triton X-100 were determined if the RAs were <50%. (RA: ∼50%, IC50∼c, c: concentration of compound in the assay; RA >50%, IC50 > c). The RA was measured over a range of concentrations, from which the IC50 values were determined by non-linear regression analysis, using Sigma Plot (Systat software) and fitting the data to the equation y = y0+(a×b)/(b+x)[23].

PBP5fm = PBP5fm (Enterococcus faecium, UniProt Q47759); assay: PBP5fm enzymatic inhibition assay (fluorescein-labeled ampicillin, residual penicillin binding activity); assay type: biochemical, Enterococcus faecium D63r; conditions: 4 h; residual activity of the enzyme at 1 mM inhibitor; 0.01% Triton X-100; read-out: PBP5fm RA [%]
Experimental: PBP2a from Staphylococcus aureus ATCC 43300 and PBP5fm from Enterococcus faecium D63r were overproduced and purified as described previously, [18].
Each of the purified PBPs (2.5 µM) were first incubated with 1 mM potential inhibitor in 100 mM phosphate buffer, 0.01% Triton X-100[19], pH 7, for 4 h at 30°C. Then, 25 µM fluorescein-labeled ampicillin[20] was added to detect the residual penicillin binding activity (RA). The samples were further incubated for 30 min at 37°C in a total volume of 20 µL. Denaturation buffer was added (0.1 M Tris/HCl, pH 6.8, containing 25% glycerol, 2% SDS, 20% β-mercaptoethanol and 0.02% bromophenol blue) and the samples were heated to 100°C for 1 min. The samples were then loaded onto a 10% SDS-acrilamide gel (10×7 cm) and electrophoresis was performed for 45 min at 180 V (12 mA). Detection and quantification of the RAs were with Molecular Image FX equipment and Quantity One software (BioRad, Hercules, CA, USA). Three independent experiments were carried out for each inhibitor.

[1] = tested on: all of the Staphylococcus aureus tested strains; assay: In-vitro antibacterial activity (MIC), Staphylococcus aureus strains; assay type: cell-based
Experimental: Determination of the antibacterial activities was carried out on microtiter plates, in 200 µL (final volume) of Müeller-Hinton Broth (MHB), following EUCAST (European Committee on Antimicrobial Susceptibility testing)/CLSI (Clinical and Laboratory Standard Institute) recommended procedures, [25]. The compounds were solubilized in MHB, just before use. Inocula were prepared for each strain by resuspending isolated colonies from 18 h cultured plates. Equivalents of 0.5 Mac Farland turbidity standards (approximately 1×10^8 CFU mL^−1) were prepared in saline solution ([…]) and then diluted 200-fold in MBH.

[2] = tested on: protoplasts of S. aureus ATCC43300 resistant strain; assay: Effect on protoplasts; assay type: cell-based, Staphylococcus aureus; conditions: concentration equivalent to 4 times the MIC; after ten minutes
Experimental: The importance of this hit compound is further underlined by its very promising minimum inhibitory concentrations (MICs) against several Gram-positive bacterial strains, including MRSA (32 µg/mL). […] This assumption is confirmed by the fact that for S. aureus ATCC25923 strain, sensitive to penicillin and devoid of PBP2a, compound 1 has the same MIC value as for the other two resistant S. aureus strains (Table 2) where PBP2a is present. To better understand the antibacterial activity of compound 1, we performed an experiment to evaluate the effect of compound 1 on the protoplasts of S. aureus ATCC43300 resistant strain, at a concentration equivalent to 4 times the MIC. […] Further analysis is needed to better understand the precise mode of action of these inhibitors on the bacterial cell.

Sequence of PBP2x 5204 (P59676 49-750): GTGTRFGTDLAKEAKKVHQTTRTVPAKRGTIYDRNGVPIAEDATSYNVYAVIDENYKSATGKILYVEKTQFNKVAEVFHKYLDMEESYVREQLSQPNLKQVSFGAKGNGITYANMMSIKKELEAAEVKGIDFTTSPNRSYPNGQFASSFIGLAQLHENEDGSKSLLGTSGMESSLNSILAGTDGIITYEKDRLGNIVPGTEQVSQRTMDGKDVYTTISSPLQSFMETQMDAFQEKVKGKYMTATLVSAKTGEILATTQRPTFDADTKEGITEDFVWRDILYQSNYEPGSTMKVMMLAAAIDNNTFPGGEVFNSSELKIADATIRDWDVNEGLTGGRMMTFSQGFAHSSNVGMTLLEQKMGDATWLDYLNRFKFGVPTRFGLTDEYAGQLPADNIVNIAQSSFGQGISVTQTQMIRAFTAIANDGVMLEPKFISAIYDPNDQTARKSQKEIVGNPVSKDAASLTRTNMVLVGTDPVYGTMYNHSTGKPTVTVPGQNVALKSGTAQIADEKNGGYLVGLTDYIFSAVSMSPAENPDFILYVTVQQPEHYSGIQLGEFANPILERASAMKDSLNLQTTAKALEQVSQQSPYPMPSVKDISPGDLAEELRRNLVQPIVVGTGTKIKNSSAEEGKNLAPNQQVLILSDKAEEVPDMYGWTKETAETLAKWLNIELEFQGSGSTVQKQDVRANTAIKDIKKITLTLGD
Sequence of PBP5fm (Q47759 entry or part of it): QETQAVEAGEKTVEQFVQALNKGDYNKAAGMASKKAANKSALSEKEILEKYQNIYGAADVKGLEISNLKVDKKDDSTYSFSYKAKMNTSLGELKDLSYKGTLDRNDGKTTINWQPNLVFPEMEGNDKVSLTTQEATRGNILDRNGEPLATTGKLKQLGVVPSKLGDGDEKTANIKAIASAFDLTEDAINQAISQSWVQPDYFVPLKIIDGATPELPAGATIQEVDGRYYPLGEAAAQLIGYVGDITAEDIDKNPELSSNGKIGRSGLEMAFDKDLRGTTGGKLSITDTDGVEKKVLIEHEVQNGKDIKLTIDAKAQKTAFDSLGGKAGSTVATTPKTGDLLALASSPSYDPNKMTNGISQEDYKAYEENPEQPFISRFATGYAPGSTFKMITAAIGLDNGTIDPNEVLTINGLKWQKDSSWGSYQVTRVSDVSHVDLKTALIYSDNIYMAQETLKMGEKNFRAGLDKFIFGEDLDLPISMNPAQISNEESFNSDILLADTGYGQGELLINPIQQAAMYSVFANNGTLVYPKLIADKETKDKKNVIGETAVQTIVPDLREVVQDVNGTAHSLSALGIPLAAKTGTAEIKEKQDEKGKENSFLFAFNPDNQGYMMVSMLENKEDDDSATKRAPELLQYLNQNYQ

SMILES: CCCCOc1ccc2cc(S(=O)(=O)Nc3ccccc3C(=O)O)ccc2c1 [compound 1, 2-(6-butoxynaphthalene-2-sulfonamido)benzoic acid]
- IC50 (PBP2x 5204; read-out: PBP2x5204 IC50, in the presence of 0.01% Triton X-100): 391 µM
- PBP2x5204 RA [%] (PBP2x 5204; residual activity of the enzyme at 500 µM inhibitor, 240 min): 38%
- activity at 1000 µM (PBP5fm): 100%
- melting point: 192 to 194 °C
- MIC ([1]; MRSA, read-out: minimum inhibitory concentration (MIC) against MRSA): 32 µg/mL
- MIC ([1]; all S. aureus tested strains, converted from µg/ml, read-out: MIC value for all of the Staphylococcus aureus tested strains): 80 µM
- MIC ([1]; all S. aureus tested strains, read-out: MIC value for all of the Staphylococcus aureus tested strains): 32 µg/mL
- effect on protoplasts [2]: complete lysis of protoplasts
